Consider 1 molecule from patent publication US12661338B2, “Heterocyclic compounds as modulators of beta-catenin / TCF4 interaction” (AGENCY FOR SCIENCE, TECHNOLOGY AND RESEARCH, priority 2019, dated 2026).

SMILES strings stand for the structures. Where two headings read alike, the source gives them in different places.

Holding throughout (format): cell-based
Test [1] deals with CRC1850. Description: Viability of primary patient-derived colorectal cancer cell line. Particulars: CRC1850, Liver Met.
Test [2] relates to CRC2413. Described as above.
In test [3] the test system is HCT116 cells. The test can be described thus: Spheroid formation assay. Particulars: HCT116, 30 μM. As for the experimental part:
HCT116, DLD-1, and SW480 cells were seeded as 150 cells in 200 μL spheroid medium per well in 96-well ultra-low attachment plates (Corning cat. #3474). The compounds were added on the day of cell seeding at a final concentration of 30 μM, 0.5% DMSO. The cells were grown at 37° C., 5% CO2 and images of the spheroids formed were taken on days 7 and 10 after cell seeding using the Operetta CLS system (Perkin Elmer).

For test [4], the system named is CRC1671. Description: Viability of primary patient-derived colorectal cancer cell line.
For test [5], the system named is SW480 cells. The test can be described thus: Dose response viability of CRC cells (CellTiter-Glo). To be noted: Homo sapiens, 24 hr. Here is the method:
HCT116, DLD-1, and SW480 cells were seeded as 5,000 cells in 100 μL growth medium per well in 96-well plates (Corning cat. #3903). The next day, 5-fold dilutions of the compounds in DMSO were added to the cells at a final concentration of 1% DMSO. After 24 hr incubation, the viability of the cells was determined with CellTiter-Glo luminescent cell viability reagent (Promega cat. #G7573) according to the manufacturer's protocol.
(§1) The average signal from DMSO treated wells was calculated for each plate, and the signal from each treatment well was normalized against the average DMSO signal from the respective plate. The normalized values were plotted against the concentrations tested using GraphPad Prism 5, and the EC50 values were determined through either three- or four-parameter nonlinear regression.

Test [6] concerns Wnt signalling (TOPFlash reporter, STF3A cells). The test can be described thus: Wnt STF3A TOPFlash reporter dose response (constitutive Wnt3A). Here is the method: Wnt STF reporter cells (HEK 293 cells stably transfected with TOPFlash reporter) and STF3A reporter cells (STF cells with constitutive secretion of Wnt3A) were kind gifts from David Virshup (Duke-NUS Graduate Medical School, Singapore). HCT116, DLD-1, and SW480 cell lines were obtained from ATCC. The Hippo pathway TEAD reporter (cat. #60618) and Myc signalling pathway reporter (cat. #60520) cells lines were purchased from BPS Bioscience, Inc.
(§2) The Wnt STF3A reporter cells were seeded as 20,000 cells in 100 μL culture medium per well in 96-well plates (Corning cat. #3903, Falcon cat. #353072). The next day, 5-fold dilutions of the compounds in DMSO were added to the cells at a final concentration of 1% DMSO. After 24 hr incubation, the viability of the cells was determined with cell counting kit-8 (CCK-8, Dojindo cat. #CK04) cell viability reagent according to the manufacturer's protocol while the TOPFlash reporter activity was determined with Steady-Glo luciferase reagent.
as §1

In test [7] the test system is Wnt target proteins in HCT116 cells. Description: Western blotting of Wnt target and Wnt pathway proteins in HCT116 cells. Particulars: 50 μM, 18 hr. As for the experimental part: HCT116 cells were treated with compounds for 18 hr at a final concentration of 50 μM, 1% DMSO. Cells were lysed on ice in RIPA buffer (Thermo cat. #89900) containing cOmplete™ protease inhibitor cocktail (Roche cat. #11697498001) and PhosSTOP phosphatase inhibitor cocktail (Roche cat. #04906837001). 30 μg per sample of total cellular protein was resolved by SDS-PAGE and blotted onto PVDF membrane (Millipore cat. #IPVH00010). Primary antibodies were incubated overnight at 4° C. and the blots were detected with either IRDye 800CW goat anti-rabbit antibody (LI-COR cat. #926-32211) or IRDye 680RD goat anti-mouse antibody (LI-COR cat. #926-68070) at 1:5000 dilution. Signals were visualized with the LI-COR Odyssey CLx imaging system and bands were quantified using LI-COR Image Studio data analysis software. The primary antibodies used were Met (Cell Signalling Technology cat. #8198, 1:1000), cyclin D1 (Cell Signalling Technology cat. #2978, 1:1000), survivin (Santa Cruz cat. #sc-10811, 1:500), ECAD (Cell Signalling Technology cat. #3195, 1:1000), TCF4/TCF7L2 (Cell Signalling Technology cat. #2569, 1:1000), β-cat (Cell Signalling Technology cat. #8480, 1:1000), β-actin (Abcam cat. #ab8226, 1:3000).

Test [8] relates to CRC1258. Description: Viability of primary patient-derived colorectal cancer cell line. To be noted: CRC1258, Liver Met.
Test [9] concerns CRC2423. The test is described as above.
The test system of test [10] is β-cat-ECAD interaction. The test can be described thus: Co-immunoprecipitation of β-cat and ECAD in HCT116 cells. To be noted: 18 hr. Here is the method:
HCT116 cells were treated for 18 hr with compounds at the indicated concentrations. Cells were lysed on ice in lysis buffer containing 20 mM HEPES, pH 7.5, 137 mM NaCl, 1.5 mM MgCl2, 1 mM EGTA, 1 mM dithiothreitol (DTT), 1% Triton X-100, 10% glycerol, cOmplete protease inhibitor cocktail (Roche cat. #11697498001), and 1 mM Na3VO4. Each sample of cleared protein lysate was incubated overnight at 4° C. with 4 μg anti-β-cat antibody (Sigma cat. #C7207) followed by 1 hr incubation with a 50 μL slurry of Dynabeads Protein G (Invitrogen cat. #10004D) at 4° C. The beads were then washed three times with lysis buffer at 4° C., and the bound protein was eluted by heating the beads with 30 μL (per sample) of SDS sample buffer at 95° C. for 7 min. protein was resolved by SDS-PAGE and blotted onto PVDF membrane (Millipore cat. #IPVH00010). Primary antibodies were incubated overnight at 4° C. and the blots were detected with either IRDye 800CW goat anti-rabbit antibody (LI-COR cat. #926-32211) or IRDye 680RD goat anti-mouse antibody (LI-COR cat. #926-68070) at 1:5000 dilution. Signals were visualized with the LI-COR Odyssey CLx imaging system and bands were quantified using LI-COR Image Studio data analysis software. […]

Test [11] relates to CRC2440. Description: Viability of primary patient-derived colorectal cancer cell line.
In test [12] the test system is CRC1489. The description is as above.
In test [13] the test system is CRC1177. Described as above.
Test [14] relates to STF3A cells. Description: Viability (toxicity) of STF3A reporter cells, CCK-8. To be noted: Table 3; STF3A reporter cell line. Here is the method:
as §2, §1

A word on the EC50: it is the concentration needed to bring the measured effect to its halfway point. Lower therefore signals an effect from little substance. In general, IC50 refers to the concentration needed to halve the response being measured.

Regarding `CCc1ccc(OCc2nnc(SC3CCCC3=O)n2C(C)c2ccccc2)cc1` (stereo not shown) [GB1874], the EC50 in [1] stood at 37 µM; in [2], 16 µM; in test [4], 30 µM; in test [5], 24 µM; in test [8] it was 27 µM; in test [9], 30 µM. The EC50 in test [11] was found to be 16 µM; in test [12] it was 41 µM; in test [13], 19 µM. In [3], the spheroid formation result is “markedly reduce survival of the cancer stem-like cells”. The IC50 in test [6] (Table 1, STF3A reporter cells, 24 hr, read-out: IC50 Wnt (STF3A)) worked out at 26 µM; in test [6] (Table 3, STF3A reporter cell line, read-out: STF3A Inhibition IC50), 27 µM; in test [14] it was 64 µM. Besides, the “expression of Wnt target genes c-Met, cyclin D1 and survivin (Western blotting)” value in test [7] is “most effective at reducing the expression of these proteins”. The “expression of β-cat, ECAD and TCF4 (Western blotting)” value in test [7] was “minimal effect on the expression of β-cat itself, or the expression of its partner proteins, such as ECAD and TCF4”. In test [10], the “β-cat-ECAD interaction (co-IP)” value was “minimal effect on the β-cat-ECAD interaction”.
